Measurements taken from patent US20130344026A1, “Dimeric Smac Mimetics” (priority 2009, published 2013).
Like-named read-outs stand apart in the source and are kept apart here. One block for each molecule: values may come before it. *1 amine or outer side, *2 acyl side, *3 side chain or, on linkers, in order; H or OH if unused. Where a SMILES comes first, the peptide text is derived from it. Bridges are numbered along the chain shown (N, C = ends). Roman numbers before positions name the chains, in order. [ ]: non-standard residue; d: D form. Piperazine(1,4-diyl) = C1CN([*:2])CCN1[*:1]; Chg = N[C@H](C(=O)O)C1CCCCC1; Tle = CC(C)(C)[C@H](N)C(=O)O; NMeA = CN[C@@H](C)C(=O)O

Tested on: HCC461
Test: cell viability assay in HCC461, compound alone
Format: cell-based
[1] = HCC461, HCC461 cells, compound alone, read-out: IC50 (uM) in cell viability assay in HCC461
[2] = HCC461, HCC461, Tables 15-18, read-out: IC50 (uM) in cell viability assay in HCC461
[3] = HCC461 cells, compound alone, read-out: IC50 (uM) in cell viability assay in HCC461
[4] = HCC461, HCC461, Tables 6-9, read-out: IC50 (μM) in cell viability assay in HCC461

IC50 [1]: 0.036 µM
SMILES: CC[C@H](C)[C@H](NC(=O)[C@H](C)NC)C(=O)N1C[C@@H](NC(=O)/C=C/C(=O)N[C@H]2C[C@@H](C(=O)N[C@H](C)c3ccccc3)N(C(=O)[C@@H](NC(=O)[C@H](C)NC)[C@@H](C)CC)C2)C[C@H]1C(=O)N[C@H](C)c1ccccc1 [Compound P3-76]

IC50 [1]: 0.023 µM
SMILES: CN[C@@H](C)C(=O)N[C@H](C(=O)N1C[C@@H](NC(=O)c2cc(C(=O)N[C@H]3C[C@@H](C(=O)NCc4ccc(F)cc4)N(C(=O)[C@@H](NC(=O)[C@H](C)NC)C(C)(C)C)C3)[nH]n2)C[C@H]1C(=O)NCc1ccc(F)cc1)C(C)(C)C [Compound P3-72]

IC50 [4]: 0.121 µM
SMILES: CN[C@@H](C)C(=O)N[C@@H](CCC(=O)OC)C(=O)N1C[C@@H](NC(=O)c2cccc(C(=O)N[C@H]3C[C@@H](C(=O)N[C@H](C)c4ccccc4)N(C(=O)[C@@H](NC(=O)[C@H](C)NC)C(C)(C)C)C3)c2)CC1C(=O)N[C@H](C)c1ccccc1 (stereo partly shown) [Compound 150]

IC50 [4]: 3.6 µM
SMILES: CN[C@@H](C)C(=O)NC(C(=O)N1C[C@@H](NC(=O)c2cccc(C(=O)N[C@H]3C[C@@H](C(=O)N[C@H](C)c4ccccc4)N(C(=O)[C@H](CCC(=O)OC)NC(=O)[C@H](CO)NC)C3)c2)CC1C(=O)N[C@@H]1CCCc2ccccc21)C(C)(C)C (stereo partly shown) [Compound 154]

IC50 [1]: 0.057 µM
SMILES: CN[C@@H](C)C(=O)N[C@H](C(=O)N1C[C@@H](NC(=O)c2cc(C(=O)N[C@H]3C[C@@H](C(=O)N[C@H](C)c4ccccc4)N(C(=O)[C@@H](NC(=O)[C@H](C)NC)C4CCCCC4)C3)[nH]n2)C[C@H]1C(=O)N[C@H](C)c1ccccc1)C1CCCCC1 [Compound P3-79]

IC50 [1]: 0.028 µM
SMILES: CN[C@@H](C)C(=O)N[C@H](C(=O)N1C[C@@H](n2cc(CCCc3cn([C@H]4C[C@@H](C(=O)N[C@H](C)c5ccccc5)N(C(=O)[C@@H](NC(=O)[C@H](C)NC)C(C)(C)C)C4)nn3)nn2)C[C@H]1C(=O)N[C@H](C)c1ccccc1)C(C)(C)C [Compound P3-87]

IC50 [1]: 0.058 µM
SMILES: CN[C@@H](C)C(=O)N[C@H](C(=O)N1C[C@@H](NC(=O)c2cc(N)cc(C(=O)N[C@H]3C[C@@H](C(=O)N[C@H](C)c4ccccc4)N(C(=O)[C@@H](NC(=O)[C@H](C)NC)C(C)C)C3)c2)C[C@H]1C(=O)N[C@H](C)c1ccccc1)C(C)C [Compound P3-81]

IC50 [1]: 0.196 µM
SMILES: CN[C@@H](C)C(=O)N[C@H](C(=O)N1C[C@@H](NC(=O)c2cccc(C(=O)N[C@H]3C[C@@H](C(=O)N[C@H](C)C(C)C)N(C(=O)[C@@H](NC(=O)[C@H](C)NC)C(C)(C)C)C3)c2)C[C@H]1C(=O)N[C@H](C)C(C)C)C(C)(C)C [Compound P3-83]

IC50 [1]: 0.04 µM
SMILES: CN[C@@H](C)C(=O)N[C@H](C(=O)N1C[C@@H](NC(=O)c2cc(N)cc(C(=O)N[C@H]3C[C@@H](C(=O)N[C@H](C)C4CCCCC4)N(C(=O)[C@@H](NC(=O)[C@H](C)NC)C(C)(C)C)C3)c2)C[C@H]1C(=O)N[C@H](C)C1CCCCC1)C(C)(C)C [Compound P3-44]

IC50 [3]: 0.031 µM
SMILES: CN[C@@H](C)C(=O)N[C@H](C(=O)N1C[C@@H](NC(=O)C2CCCC(C(=O)N[C@H]3C[C@@H](C(=O)NC4CCCc5ccccc54)N(C(=O)[C@@H](NC(=O)[C@H](C)NC)C(C)(C)C)C3)C2)CC1C(=O)N[C@@H]1CCCc2ccccc21)C(C)(C)C (stereo partly shown) [Compound P3-27]

IC50 [4]: 6.97 µM
SMILES: CC[C@H](NC(=O)[C@H](C)NC)C(C)N[C@@H](CNC(=O)c1cccc(C(=O)N[C@H]2C[C@@H](C(=O)N[C@@H]3CCCc4ccccc43)N(C(=O)[C@@H](NC(=O)[C@H](C)NC)C(C)(C)C)C2)c1)C(=O)N[C@H](C)C(C)C (stereo partly shown) [Compound 137]

IC50 [3]: 0.002 µM
SMILES: CN[C@@H](C)C(=O)N[C@H](C(=O)N1C[C@@H](NC(=O)C2CCCC(C(=O)N[C@H]3C[C@@H](C(=O)NC4CCCc5ccccc54)N(C(=O)[C@@H](NC(=O)[C@H](C)NC)C(C)(C)C)C3)C2)CC1C(=O)N[C@@H]1CCCc2ccccc21)C(C)(C)C (stereo partly shown) [Compound P3-17]

IC50 [1]: 0.017 µM
SMILES: CN[C@@H](C)C(=O)N[C@H](C(=O)N1C[C@@H](NC(=O)[C@H](O)[C@@H](O)C(=O)N[C@H]2C[C@@H](C(=O)NC3c4ccccc4-c4ccccc43)N(C(=O)[C@@H](NC(=O)[C@H](C)NC)C(C)(C)C)C2)C[C@H]1C(=O)NC1c2ccccc2-c2ccccc21)C(C)(C)C [Compound P3-15]

The next lines start with the molecule.

SMILES: CN[C@@H](C)C(=O)N[C@H](C(=O)N1C[C@@H](NC(=O)c2cc(C(=O)N[C@H]3C[C@@H](C(=O)N[C@@H]4CCCc5ccccc54)N(C(=O)[C@@H](NC(=O)[C@H](C)NC)C(C)(C)C)C3)cc(N(S(C)(=O)=O)S(C)(=O)=O)c2)C[C@H]1C(=O)N[C@@H]1CCCc2ccccc21)C(C)(C)C [Compound P3-41]
IC50 [1]: 0.016 µM

SMILES: CN[C@@H](C)C(=O)N[C@H](C(=O)N1C[C@@H](NC(=O)c2cc(NC(C)=O)cc(C(=O)N[C@H]3C[C@@H](C(=O)N[C@@H]4CCCc5ccccc54)N(C(=O)[C@@H](NC(=O)[C@H](C)NC)C(C)(C)C)C3)c2)C[C@H]1C(=O)N[C@@H]1CCCc2ccccc21)C(C)(C)C [Compound P3-42]
IC50 [1]: 0.011 µM

SMILES: CN[C@@H](C)C(=O)N[C@H](C(=O)N1CCC[C@H]1C(=O)N[C@@H]1CCCc2ccccc21)c1ccc(OCc2ccccc2COc2ccc([C@H](NC(=O)[C@H](C)NC)C(=O)N3CCC[C@H]3C(=O)N[C@@H]3CCCc4ccccc43)cc2)cc1 [Compound P2-3]
IC50 [2]: 0.072 µM

SMILES: CN[C@@H](C)C(=O)N[C@H](C(=O)N1C[C@@H](NC(=O)C2CCCC(C(=O)N[C@H]3C[C@@H](C(=O)N[C@H](C)C4CCCCC4)N(C(=O)[C@@H](NC(=O)[C@H](C)NC)C(C)(C)C)C3)C2)C[C@H]1C(=O)N[C@H](C)C1CCCCC1)C(C)(C)C (stereo partly shown) [Compound P3-47]
IC50 [3]: 0.022 µM

SMILES: CN[C@@H](C)C(=O)N[C@H](C(=O)N1C[C@@H](NC(=O)c2ccc(-c3ccc(C(=O)N[C@H]4C[C@@H](C(=O)NC5CCCc6ccccc65)N(C(=O)[C@@H](NC(=O)[C@H](C)NC)C(C)(C)C)C4)cn3)nc2)CC1C(=O)N[C@@H]1CCCc2ccccc21)C(C)(C)C (stereo partly shown) [Compound P3-40]
IC50 [1]: 0.005 µM

SMILES: CN[C@@H](C)C(=O)N[C@H](C(=O)N1CCC[C@H]1C(=O)N[C@H](CNC(=O)[C@@H]1CC[C@](C)(C(=O)NC[C@@H](NC(=O)[C@@H]2CCCN2C(=O)[C@@H](NC(=O)[C@H](C)NC)C(C)(C)C)c2ccccc2)C1(C)C)c1ccccc1)C(C)(C)C [Compound P3-48]
IC50 [1]: 0.183 µM

SMILES: CN[C@@H](C)C(=O)N[C@H](C(=O)N1CCC[C@H]1C(=O)N[C@H](COCc1ccc(COC[C@@H](NC(=O)[C@@H]2CCCN2C(=O)[C@@H](NC(=O)[C@H](C)NC)C(C)(C)C)C2CCCCC2)cc1)C1CCCCC1)C(C)(C)C [Compound P4-17]
IC50 [2]: 0.015 µM

SMILES: CN[C@@H](C)C(=O)N[C@H](C(=O)N1C[C@@H](NC(=O)c2cccnc2-c2ncccc2C(=O)N[C@H]2C[C@@H](C(=O)NC3CCCc4ccccc43)N(C(=O)[C@@H](NC(=O)[C@H](C)NC)C(C)(C)C)C2)CC1C(=O)N[C@@H]1CCCc2ccccc21)C(C)(C)C (stereo partly shown) [Compound P3-39]
IC50 [1]: 0.006 µM

SMILES: CN[C@@H](C)C(=O)NC(C(=O)N1C[C@@H](NC(=O)c2cc(NC(=O)OCc3ccc([N+](=O)[O-])cc3)cc(C(=O)N[C@H]3C[C@@H](C(=O)N[C@@H]4CCCc5ccccc54)N(C(=O)[C@@H](NC(=O)[C@H](C)NC)C(C)(C)C)C3)c2)CC1C(=O)N[C@@H]1CCCc2ccccc21)C(C)(C)C (stereo partly shown) [Compound 110]
IC50 [4]: 0.059 µM

SMILES: CN[C@@H](C)C(=O)N[C@@H](CC#CC#CC[C@H](NC(=O)[C@H](C)NC)C(=O)N1CSC[C@H]1C(=O)N[C@@H]1CCCc2ccccc21)C(=O)N1CSC[C@H]1C(=O)N[C@@H]1CCCc2ccccc21 [Compound P2-33]
IC50 [2]: 0.188 µM

SMILES: CN[C@@H](C)C(=O)N[C@@H](CCCCNC(=O)c1ccc(C(=O)NCCCC[C@H](NC(=O)[C@H](C)NC)C(=O)N2CCC[C@H]2C(=O)NC(c2ccccc2)c2ccccc2)cc1)C(=O)N1CCC[C@H]1C(=O)NC(c1ccccc1)c1ccccc1 [Compound P2-30]
IC50 [2]: 0.189 µM

SMILES: CN[C@@H](C)C(=O)N[C@H](C(=O)N1C[C@@H](NC(=O)c2cccc(C(=O)N[C@H]3C[C@@H](C(=O)NC4CCCC5CCCCC54)N(C(=O)[C@@H](NC(=O)[C@H](C)NC)C(C)(C)C)C3)c2)C[C@H]1C(=O)NC1CCCC2CCCCC21)C(C)(C)C (stereo partly shown) [Compound P3-58]
IC50 [3]: 0.211 µM

SMILES: CN[C@@H](C)C(=O)N[C@@H](CC#CC#CC[C@H](NC(=O)[C@H](C)NC)C(=O)N1CC=C[C@H]1C(=O)N[C@@H]1CCCc2ccccc21)C(=O)N1CC=C[C@H]1C(=O)N[C@@H]1CCCc2ccccc21 [Compound 89]
IC50 [4]: 0.414 µM

SMILES: CN[C@@H](C)C(=O)N[C@H](C(=O)N1CCC[C@H]1C(=O)N[C@H](C(=O)N1CCN(C(=O)[C@@H](NC(=O)[C@@H]2CCCN2C(=O)[C@@H](NC(=O)[C@H](C)NC)C(C)(C)C)C2CCCCC2)CC1)C1CCCCC1)C(C)(C)C [Compound P4-10] (I: H-[NMeA][Tle]P[Chg] / II: H-[NMeA][Tle]P[Chg]; linker I:C-II:C via Piperazine(1,4-diyl))
IC50 [2]: 0.26 µM

SMILES: CN[C@@H](C)C(=O)N[C@@H](CCCCCC[C@H](NC(=O)[C@H](C)NC)C(=O)N1CCC[C@H]1C(=O)NC1CCCC2CCCCC21)C(=O)N1CCC[C@H]1C(=O)NC1CCCC2CCCCC21 (stereo partly shown) [Compound P2-23]
IC50 [2]: 0.055 µM

SMILES: CN[C@@H](C)C(=O)N[C@H](C(=O)N1CCC[C@H]1C(=O)N[C@H](COCc1cccc(COC[C@@H](NC(=O)[C@@H]2CCCN2C(=O)[C@@H](NC(=O)[C@H](C)NC)C(C)(C)C)C2CCCCC2)c1)c1ccccc1)C(C)(C)C [Compound P4-18]
IC50 [2]: 0.013 µM

SMILES: C[C@H](NC(=O)OCc1ccc([N+](=O)[O-])cc1)C(=O)NC(C(=O)N1C[C@@H](NC(=O)c2cc(C(=O)N[C@H]3C[C@@H](C(=O)N[C@@H]4CCCc5ccccc54)N(C(=O)[C@@H](NC(=O)[C@H](C)NC(=O)OCc4ccc([N+](=O)[O-])cc4)C(C)(C)C)C3)cc(S(=O)(=O)O)c2)CC1C(=O)N[C@@H]1CCCc2ccccc21)C(C)(C)C (stereo partly shown) [Compound 112]
IC50 (HCC461, Tables 6-9, read-out: IC50 (μM) in cell viability assay in HCC461): > 30 µM

SMILES: CN[C@@H](C)C(=O)N[C@H](C(=O)N1CCC[C@H]1C(=O)N[C@H](CNC(=O)c1cc(N)cc(C(=O)NC[C@@H](NC(=O)[C@@H]2CCCN2C(=O)[C@@H](NC(=O)[C@H](C)NC)C(C)(C)C)c2ccccc2)c1)c1ccccc1)C(C)(C)C [Compound P4-13]
IC50 [2]: 0.089 µM
